Assay [1] deals with T1, Alpha-1D adrenergic receptor (Homo sapiens, UniProt P25100).
T1 sequence (P25100 whole entry): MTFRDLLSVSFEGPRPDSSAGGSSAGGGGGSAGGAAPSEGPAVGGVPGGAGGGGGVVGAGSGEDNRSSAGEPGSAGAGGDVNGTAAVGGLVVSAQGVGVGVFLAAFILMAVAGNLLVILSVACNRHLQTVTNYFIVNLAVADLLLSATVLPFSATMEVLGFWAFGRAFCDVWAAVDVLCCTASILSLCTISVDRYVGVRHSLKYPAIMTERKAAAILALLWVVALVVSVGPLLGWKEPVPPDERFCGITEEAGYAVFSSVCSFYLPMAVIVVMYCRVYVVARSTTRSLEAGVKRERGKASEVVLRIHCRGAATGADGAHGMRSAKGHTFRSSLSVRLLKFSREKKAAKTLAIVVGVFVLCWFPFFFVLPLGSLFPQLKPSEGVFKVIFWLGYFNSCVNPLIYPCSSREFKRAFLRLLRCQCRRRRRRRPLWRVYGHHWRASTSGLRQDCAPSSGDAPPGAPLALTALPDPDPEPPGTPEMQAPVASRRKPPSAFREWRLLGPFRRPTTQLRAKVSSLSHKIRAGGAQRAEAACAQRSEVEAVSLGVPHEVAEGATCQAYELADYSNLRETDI
In kind it is cell membranes, HEK293, Membrane. Particulars: for Ki: read-out: Ki.

Assay [2] deals with Sodium-dependent noradrenaline transporter (Homo sapiens, UniProt P23975). Briefly: DRUGMATRIX: Norepinephrine Transporter radioligand binding (ligand: [125I] RTI-55). In kind it is cell membranes, MDCK, Membrane. The conditions noted are these: Not Active = under 50% inhibition at 10 µM.
Assay [3] in a line: DRUGMATRIX: beta-Lactamase enzyme inhibition (substrate: Nitrocefin). The arrangement: species or system Bacillus cereus. The conditions noted are these: Not Active = under 50% inhibition at 10 µM.
Assay [4] concerns the target T2, C-X-C chemokine receptor type 2 (Homo sapiens, UniProt P25025). Further: in other assays of this panel Not Active means under 50% inhibition at 10 µM.
T2 sequence (P25025 whole entry): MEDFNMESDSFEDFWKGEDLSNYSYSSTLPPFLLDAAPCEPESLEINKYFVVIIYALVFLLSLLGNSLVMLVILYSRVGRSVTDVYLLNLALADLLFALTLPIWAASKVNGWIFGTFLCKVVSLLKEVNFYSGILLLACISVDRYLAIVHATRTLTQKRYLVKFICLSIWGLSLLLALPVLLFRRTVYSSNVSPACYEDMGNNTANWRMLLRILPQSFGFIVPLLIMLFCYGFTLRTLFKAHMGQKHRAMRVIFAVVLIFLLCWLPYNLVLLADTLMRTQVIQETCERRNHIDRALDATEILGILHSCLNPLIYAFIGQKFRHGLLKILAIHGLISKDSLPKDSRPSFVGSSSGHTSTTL
In kind it is cell membranes, Membrane. The conditions noted are these: cho-k1.

Assay [5] addresses Nitric oxide synthase 1 (Rattus norvegicus, UniProt P29476). It is filed as tissue-based, Cerebellum.
Assay [6] can be described thus: DRUGMATRIX: Phorbol Ester radioligand binding (ligand: [3H] PDBu). In kind it is cell membranes, Mus musculus, ICR, Brain, Membrane. Particulars: Not Active = under 50% inhibition at 10 µM.
Assay [7] concerns the target T3, Cathepsin G (Homo sapiens, UniProt P08311).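 Further: inhibition of Cathepsin G enzyme activity, tested on an AMC-conjugated peptide substrate; in other assays of this panel Not Active means under 50% inhibition at 10 µM.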
T3 sequence (P08311 whole entry): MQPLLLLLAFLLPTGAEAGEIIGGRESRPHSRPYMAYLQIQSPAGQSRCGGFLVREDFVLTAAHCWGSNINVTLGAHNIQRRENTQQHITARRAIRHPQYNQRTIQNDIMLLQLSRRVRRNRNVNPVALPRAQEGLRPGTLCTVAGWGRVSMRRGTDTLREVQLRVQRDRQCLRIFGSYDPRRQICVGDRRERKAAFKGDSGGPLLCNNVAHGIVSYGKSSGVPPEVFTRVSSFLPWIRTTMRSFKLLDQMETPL
In kind it is tissue-based. The conditions noted are these: neutrophil.

Nitric oxide synthase 1, sequence (P29476 whole entry): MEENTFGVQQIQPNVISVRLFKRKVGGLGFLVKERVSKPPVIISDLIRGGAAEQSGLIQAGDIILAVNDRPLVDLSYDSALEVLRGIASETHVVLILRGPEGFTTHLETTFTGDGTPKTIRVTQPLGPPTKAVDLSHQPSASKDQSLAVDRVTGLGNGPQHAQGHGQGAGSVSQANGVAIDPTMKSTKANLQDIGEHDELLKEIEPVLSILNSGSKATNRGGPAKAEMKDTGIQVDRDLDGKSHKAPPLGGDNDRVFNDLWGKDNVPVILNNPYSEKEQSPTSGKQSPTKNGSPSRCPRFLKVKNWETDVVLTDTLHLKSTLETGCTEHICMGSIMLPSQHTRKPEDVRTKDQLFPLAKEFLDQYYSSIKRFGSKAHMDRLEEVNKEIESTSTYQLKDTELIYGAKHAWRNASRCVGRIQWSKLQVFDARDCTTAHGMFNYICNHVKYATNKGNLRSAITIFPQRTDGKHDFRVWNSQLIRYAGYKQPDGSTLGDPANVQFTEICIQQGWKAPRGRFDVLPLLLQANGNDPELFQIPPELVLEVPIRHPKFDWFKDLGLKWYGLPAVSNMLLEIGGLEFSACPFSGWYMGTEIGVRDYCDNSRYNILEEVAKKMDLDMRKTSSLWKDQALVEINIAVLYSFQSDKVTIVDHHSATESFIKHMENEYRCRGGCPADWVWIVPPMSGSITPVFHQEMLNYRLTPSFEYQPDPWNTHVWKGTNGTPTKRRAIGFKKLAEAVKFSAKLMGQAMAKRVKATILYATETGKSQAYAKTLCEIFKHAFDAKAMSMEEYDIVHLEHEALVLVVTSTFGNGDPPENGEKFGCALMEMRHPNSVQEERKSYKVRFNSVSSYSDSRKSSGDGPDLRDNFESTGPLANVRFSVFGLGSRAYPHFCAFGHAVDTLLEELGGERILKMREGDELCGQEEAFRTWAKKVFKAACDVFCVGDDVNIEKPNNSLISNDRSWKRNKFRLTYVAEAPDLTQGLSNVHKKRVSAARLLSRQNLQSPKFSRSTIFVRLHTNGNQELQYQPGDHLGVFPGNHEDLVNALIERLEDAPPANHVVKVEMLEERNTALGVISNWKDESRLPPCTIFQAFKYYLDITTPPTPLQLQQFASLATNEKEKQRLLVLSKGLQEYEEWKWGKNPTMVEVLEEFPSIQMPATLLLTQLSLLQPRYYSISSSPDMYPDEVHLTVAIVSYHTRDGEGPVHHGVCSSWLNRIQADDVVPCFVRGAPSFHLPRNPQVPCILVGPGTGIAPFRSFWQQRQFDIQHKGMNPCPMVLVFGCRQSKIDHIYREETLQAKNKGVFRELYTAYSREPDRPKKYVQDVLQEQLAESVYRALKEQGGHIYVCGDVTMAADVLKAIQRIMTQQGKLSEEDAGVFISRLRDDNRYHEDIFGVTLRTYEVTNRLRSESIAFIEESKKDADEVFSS
Sodium-dependent noradrenaline transporter, sequence (P23975 whole entry): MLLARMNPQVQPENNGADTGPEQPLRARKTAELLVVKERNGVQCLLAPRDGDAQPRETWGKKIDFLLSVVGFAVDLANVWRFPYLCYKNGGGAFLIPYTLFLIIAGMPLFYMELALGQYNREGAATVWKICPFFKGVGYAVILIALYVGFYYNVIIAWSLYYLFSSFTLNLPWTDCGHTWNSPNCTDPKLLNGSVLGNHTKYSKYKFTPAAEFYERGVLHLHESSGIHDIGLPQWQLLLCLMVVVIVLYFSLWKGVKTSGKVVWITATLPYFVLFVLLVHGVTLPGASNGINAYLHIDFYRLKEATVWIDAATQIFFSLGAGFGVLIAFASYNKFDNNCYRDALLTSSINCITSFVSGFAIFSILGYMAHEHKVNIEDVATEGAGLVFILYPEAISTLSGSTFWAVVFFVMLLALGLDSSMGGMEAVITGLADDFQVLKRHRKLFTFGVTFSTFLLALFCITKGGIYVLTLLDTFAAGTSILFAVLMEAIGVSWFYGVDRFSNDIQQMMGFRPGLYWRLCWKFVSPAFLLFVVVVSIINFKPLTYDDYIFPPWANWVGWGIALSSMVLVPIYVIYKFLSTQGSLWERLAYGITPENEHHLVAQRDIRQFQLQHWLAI

In the case of `Nc1cc(-c2ccncc2)c[nH]c1=O` [INAMRINONE], the IC50 result in assay [1] (hek293), in assay [2] (mdck), in assay [3], in assay [4], in assay [5] and in assay [6] was “Not Active” in each case. Further, the IC50 entry in assay [7] is reported as “Not Active”. Moreover, the Ki result in assay [3] and in assay [6] was “Not Active” in each case.
In the case of `CCCCC1=NC2(CCCC2)C(=O)N1Cc1ccc(-c2ccccc2-c2nnn[nH]2)cc1` [IRBESARTAN], the IC50 result in assay [1] (hek293), in assay [2] (mdck), in assay [3], in assay [4], in assay [5] and in assay [6] was “Not Active” in each case. For the same molecule, in assay [7], the IC50 entry was “Not Active”. The Ki result in assay [3] and in assay [6] was “Not Active” each time.
As to `CN1CCC(=C2c3ccccc3CC(=O)c3sccc32)CC1` [KETOTIFEN], the IC50 in assay [1] (read-out: IC50) is 3730 nM; in assay [2] (mdck), “Not Active”; in assay [3] it was “Not Active”; in assay [4], “Not Active”; in assay [5], “Not Active”; in assay [6], “Not Active”. The IC50 entry in assay [7] is “Not Active”. Besides, the Ki was 1830 nM in assay [1], “Not Active” in assay [3] and “Not Active” in assay [6].
For `N[C@@H](Cn1ccc(=O)c(O)c1)C(=O)O` [L-MIMOSINE], the IC50 result in assay [1] (hek293), in assay [2] (mdck), in assay [3], in assay [4], in assay [5] and in assay [6] was “Not Active” in each case. Besides, the IC50 entry in assay [7] is recorded as “Not Active”. In addition, the Ki entry in assay [3] and in assay [6] was “Not Active” in each case.
`C[N+](C)(C)C[C@H](O)CC(=O)[O-]` [LEVOCARNITINE]: the IC50 result in assay [1] (hek293), in assay [2] (mdck), in assay [3], in assay [4], in assay [5] and in assay [6] was “Not Active” each time. Moreover, the IC50 entry in assay [7] is “Not Active”. Further, the Ki result in assay [3] and in assay [6] was “Not Active” in each case.
As for `CCn1cc(C(=O)O)c(=O)c2cc(F)c(N3CCNC(C)C3)c(F)c21` (stereo not given) [LOMEFLOXACIN], the IC50 result in assay [1] (hek293), in assay [2] (mdck), in assay [3], in assay [4], in assay [5] and in assay [6] was “Not Active” throughout. Also, the IC50 result in assay [7] is given as “Not Active”. Further, the Ki result in assay [3] and in assay [6] was “Not Active” in each case.
As for `CN1CCCC(CN2c3ccccc3Sc3ccccc32)C1` (stereo not given) [MEPAZINE], the IC50 is 137 nM in assay [1] (read-out: IC50); 1880 nM in assay [2] (read-out: IC50); “Not Active” in assay [3]; “Not Active” in assay [4]; “Not Active” in assay [5]; “Not Active” in assay [6]. The IC50 entry in assay [7] is “Not Active”. Moreover, the Ki was 67 nM in assay [1], 1860 nM in assay [2] (read-out: Ki), “Not Active” in assay [3] and “Not Active” in assay [6].
Take `Cc1cccc(C)c1NC(=O)C1CCCCN1C` (stereo not given) [MEPIVACAINE]: the IC50 result in assay [1] (hek293), in assay [2] (mdck), in assay [3], in assay [4], in assay [5] and in assay [6] was “Not Active” in each case. Also, the IC50 entry in assay [7] is “Not Active”. The Ki entry in assay [3] and in assay [6] was “Not Active” each time.
Take `CN(C)C(=N)NC(=N)N` [METFORMIN]: the IC50 entry in assay [1] (hek293), in assay [2] (mdck), in assay [3], in assay [4], in assay [5] and in assay [6] was “Not Active” throughout. In assay [7], the IC50 entry is listed as “Not Active”. The Ki result in assay [3] and in assay [6] was “Not Active” throughout.
As to `CC(C)(C)NCC(O)COc1cccc2c1CC(O)C(O)C2` (stereo not given) [NADOLOL], the 50% inhibitory concentration (IC50) result in assay [1] (hek293), in assay [2] (mdck), in assay [3], in assay [4], in assay [5] and in assay [6] was “Not Active” in each case. Moreover, the IC50 result in assay [7] is given as “Not Active”. Moreover, the Ki entry in assay [3] and in assay [6] was “Not Active” throughout.
As to `C[C@]12CC[C@H]3[C@@H](CCC4=CC(=O)CC[C@@H]43)[C@@H]1CC[C@@H]2O` [NANDROLONE], the IC50 result in assay [1] (hek293), in assay [2] (mdck), in assay [3], in assay [4], in assay [5] and in assay [6] was “Not Active” each time. In assay [7], the IC50 result is listed as “Not Active”. Also, the inhibition constant Ki result in assay [3] and in assay [6] was “Not Active” throughout.
In the case of `C[C@@H]1C/C=C/C=C/C=C/C=C/[C@H](O[C@@H]2O[C@H](C)[C@@H](O)[C@H](N)[C@@H]2O)C[C@@H]2O[C@](O)(C[C@@H](O)C[C@H]3O[C@@H]3/C=C/C(=O)O1)C[C@H](O)[C@H]2C(=O)O` [NATAMYCIN], the IC50 entry in assay [1] (hek293), in assay [2] (mdck), in assay [3], in assay [4], in assay [5] and in assay [6] was “Not Active” in each case. In addition, in assay [7], the IC50 entry is listed as “Not Active”. For the same molecule, the Ki result in assay [3] and in assay [6] was “Not Active” throughout.
`CN(C)C(=O)Oc1cccc([N+](C)(C)C)c1.[Br-]` [NEOSTIGMINE BROMIDE]: the IC50 result in assay [1] (hek293), in assay [2] (mdck), in assay [3], in assay [4], in assay [5] and in assay [6] was “Not Active” throughout. For the same molecule, the IC50 entry in assay [7] was “Not Active”. Besides, the Ki entry in assay [3] and in assay [6] was “Not Active” each time.
On to `NC(=O)c1cccnc1` [NIACINAMIDE], for which the IC50 entry in assay [1] (hek293), in assay [2] (mdck), in assay [3], in assay [4], in assay [5] and in assay [6] was “Not Active” each time. In assay [7], the IC50 result was “Not Active”. The Ki result in assay [3] and in assay [6] was “Not Active” in each case.
With `CS(=O)(=O)Nc1ccc([N+](=O)[O-])cc1Oc1ccccc1` [NIMESULIDE], the IC50 entry in assay [1] (hek293), in assay [2] (mdck), in assay [3], in assay [4], in assay [5] and in assay [6] was “Not Active” throughout. The IC50 entry in assay [7] is recorded as “Not Active”. Moreover, the Ki result in assay [3] and in assay [6] was “Not Active” in each case.
`CN1C(=O)CN=C(c2ccccc2)c2cc([N+](=O)[O-])ccc21` [NIMETAZEPAM]: the IC50 entry in assay [1] (hek293), in assay [2] (mdck), in assay [3], in assay [4], in assay [5] and in assay [6] was “Not Active” each time. Besides, the half-maximal inhibitory concentration (IC50) result in assay [7] was “Not Active”. For the same molecule, the Ki result in assay [3] and in assay [6] was “Not Active” throughout.
On to `COc1ccc2c(c1OC)C(=O)O[C@@H]2[C@H]1c2c(cc3c(c2OC)OCO3)CCN1C` [NOSCAPINE], for which the IC50 entry in assay [1] (hek293), in assay [2] (mdck), in assay [3], in assay [4], in assay [5] and in assay [6] was “Not Active” throughout. The IC50 entry in assay [7] is “Not Active”. Further, the Ki entry in assay [3] and in assay [6] was “Not Active” in each case.
As to `NC(=O)N1c2ccccc2CC(=O)c2ccccc21` [OXCARBAZEPINE], the IC50 entry in assay [1] (hek293), in assay [2] (mdck), in assay [3], in assay [4], in assay [5] and in assay [6] was “Not Active” throughout. The IC50 entry in assay [7] is recorded as “Not Active”. For the same molecule, the Ki result in assay [3] and in assay [6] was “Not Active” in each case.

(Values after ChEMBL document CHEMBL1909046, “DrugMatrix in vitro pharmacology data”.)
